Experimental data as given in patent US20020022633A1, “Inhibitors of prenyl-protein transferase” (priority 2000, published 2002).
Counter-ions that a name gives are not always drawn.

Molecular target: T1, human FPTase (Homo sapiens, UniProt P49354+P49356)
T1 construct: made in house
Assay: In vitro inhibition of ras farnesyl transferase (FPTase transferase assay)
Assay type: biochemical
Conditions: recombinant FPTase; 650 nM Ras-CVLS, 100 nM farnesyl diphosphate; 30° C.; read-out: IC50, inhibitory activity against human FPTase
Description: In vitro Inhibition of ras Farnesyl Transferase
Transferase Assays. Isoprenyl-protein transferase activity assays are carried out at 30° C. unless noted otherwise. A typical reaction contains (in a final volume of 50 µL): [^3H]farnesyl diphosphate, Ras protein , 50 mM HEPES, pH 7.5, 5 mM MgCl2, 5 mM dithiothreitol, 10 μM ZnCl2, 0.1% polyethyleneglycol (PEG) (15,000-20,000 mw) and isoprenyl-protein transferase. The FPTase employed in the assay is prepared by recombinant expression as described in Omer, C. A., Kral, A. M., Diehl, R. E., Prendergast, G. C., Powers, S., Allen, C. M., Gibbs, J. B. and Kohl, N. E. (1993) Biochemistry 32:5167-5176. After thermally pre-equilibrating the assay mixture in the absence of enzyme, reactions are initiated by the addition of isoprenyl-protein transferase and stopped at timed intervals (typically 15 min) by the addition of 1 M HCl in ethanol (1 mL). The quenched reactions are allowed to stand for 15 m (to complete the precipitation process). After adding 2 mL of 100% ethanol, the reactions are vacuum-filtered through Whatman GFIC filters. Filters are washed four times with 2 mL aliquots of 100% ethanol, mixed with scintillation fluid (10 mL) and then counted in a Beckman LS3801 scintillation counter. […]

IC50: ≤ 30 µM
Structure (SMILES): N#Cc1ccc2cc1Oc1ccc3ccc(=O)n(c3c1)-c1ccc(cn1)CCc1cncn1C2 [Example 1, 17-Oxo-22,23-dihydro-5H-12,14:18,21-dietheno-6,10-metheno-benzo[d]imidazo [4,3-l][1,5,7,13]oxatriazacyclononadecine-9-carbonitrile dihydrochloride]
